The values that follow come from ChEMBL document CHEMBL4739717, “Methods of treating cartilage disorders through inhibition of clk and dyrk” (2020).

Structures are written as SMILES. Activity calls are given as the source filed them. The calls are words filed in the database; no cut-off is given here.

In general, EC50 refers to the concentration at which the effect is half-maximal. Broadly, the Emax is the maximal effect, on the per cent scale that the assay sets.

Assay [1] can be described thus: Effect on Wnt signaling pathway in human SW480 cells harbouring TCF/LEF luciferase reporter gene and SP5-Luc reporter gene incubated for 36 to 48 hrs by luminescence assay. In kind it is cell-based.
Assay [2] is described as follows: Induction of chondrogenesis in human MSC assessed as incubated for 6 days by rhodamine B and Nile red staining based imaging analysis. The conditions noted are these: bmmsc. In kind it is functional.
Assay [3] is described as follows: Induction of chondrogenesis in human MSC assessed as maximum activity at 1700 nM incubated for 6 days by rhodamine B and Nile red staining based imaging analysis relative to control. In kind it is functional. The conditions noted are these: BMMSC, 144 h, time 6 day.
Assay [4] deals with Dual specificity tyrosine-phosphorylation-regulated kinase 1A (Homo sapiens, UniProt Q13627). Kind of assay: Inhibition of recombinant DYRK1A (unknown origin) using Ser/Thr 18 peptide as substrate incubated for 1 hr in presence of ATP by FRET assay.
Assay [5] can be described thus: Inhibition of IL1-beta induced MMP3 expression levels in human chondrocytes assessed as MMP3 levels incubated for 2hrs followed by IL1-beta stimulation and measured after overnight incubation by LANCE assay. In kind it is functional, cell-based. As to conditions: Chondrocyte.
Assay [6] relates to Chondrocyte. Kind of assay: Inhibition of IL1-beta induced MMP3 expression levels in human chondrocytes assessed as MMP3 levels incubated for 2hrs followed by IL1-beta stimulation and measured after 24 hrs by qRT-PCR analysis. In kind it is functional. As to conditions: time 26.0 hrs. A general note: Real-time PCR tracks product formation cycle by cycle.
Assay [7] concerns Chondrocyte. Kind of assay: Inhibition of IL1-beta induced MMP-13 expression levels in human chondrocytes assessed as MMP-13 levels incubated for 2hrs followed by IL1-beta stimulation and measured after 24 hrs by qRT-PCR analysis. In kind it is functional. The conditions noted are these: time 26.0 hrs.
Assay [8] is described as follows: Induction of chondrogenesis in human MSC assessed as maximum activity at 900 nM incubated for 6 days by rhodamine B and Nile red staining based imaging analysis relative to control. In kind it is functional. As to conditions: BMMSC, 144 h, time 6 day.
Assay [9] is described as follows: Induction of chondrogenesis in human MSC assessed as maximum activity at 20.58 nM incubated for 6 days by rhodamine B and Nile red staining based imaging analysis relative to control. In kind it is functional. The conditions noted are these: BMMSC, 144 h, time 6 day.
For assay [10], the target named is Dual specificity protein kinase CLK3 (Homo sapiens, UniProt P49761). The assay can be described thus: Inhibition of recombinant CLK3 (unknown origin) using Ser/Thr 18 peptide as substrate incubated for 1 hr in presence of ATP by FRET assay.
Sequence of Dual specificity protein kinase CLK3 (P49761 whole entry): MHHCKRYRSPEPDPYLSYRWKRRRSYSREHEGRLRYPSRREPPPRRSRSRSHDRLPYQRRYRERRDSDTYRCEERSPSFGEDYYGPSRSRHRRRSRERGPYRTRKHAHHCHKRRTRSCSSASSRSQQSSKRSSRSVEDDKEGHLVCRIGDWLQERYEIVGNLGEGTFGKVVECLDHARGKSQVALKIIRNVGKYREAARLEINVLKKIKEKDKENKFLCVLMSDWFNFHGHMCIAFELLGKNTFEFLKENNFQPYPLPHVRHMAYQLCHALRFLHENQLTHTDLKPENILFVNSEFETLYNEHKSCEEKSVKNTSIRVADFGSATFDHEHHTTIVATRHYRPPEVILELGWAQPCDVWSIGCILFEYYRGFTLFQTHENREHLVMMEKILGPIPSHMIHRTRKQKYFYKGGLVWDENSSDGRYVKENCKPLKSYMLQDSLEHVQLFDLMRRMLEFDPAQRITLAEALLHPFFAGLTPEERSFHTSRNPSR
The nature of assay [11]: Induction of chondrogenesis in human MSC assessed as maximum activity at 30 nM incubated for 6 days by rhodamine B and Nile red staining based imaging analysis relative to control. As to conditions: BMMSC, 144 h, time 6 day. In kind it is functional.
Assay [12] relates to Chondrocyte. The assay can be described thus: Inhibition of IL1-beta induced MMP1 expression levels in human chondrocytes assessed as MMP1 levels incubated for 2hrs followed by IL1-beta stimulation and measured after 24 hrs by qRT-PCR analysis. In kind it is functional. The conditions noted are these: time 26.0 hrs.
Assay [13] in a line: Induction of chondrogenesis in human MSC assessed as maximum activity at 2700 nM incubated for 6 days by rhodamine B and Nile red staining based imaging analysis relative to control. In kind it is functional. As to conditions: BMMSC, 144 h, time 6 day.
A short description of assay [14]: Induction of chondrogenesis in human MSC assessed as maximum activity at 185.19 nM incubated for 6 days by rhodamine B and Nile red staining based imaging analysis relative to control. In kind it is functional. The conditions noted are these: BMMSC, 144 h, time 6 day.
Assay [15] is described as follows: Induction of chondrogenesis in human MSC assessed as maximum activity at 100 nM incubated for 6 days by rhodamine B and Nile red staining based imaging analysis relative to control. In kind it is functional. As to conditions: BMMSC, 144 h, time 6 day.
The target in assay [16] is Dual specificity protein kinase CLK2 (Homo sapiens, UniProt P49760). Kind of assay: Inhibition of recombinant CLK2 (unknown origin) using Ser/Thr 6 peptide as substrate incubated for 1 hr in presence of ATP by FRET assay.
Sequence of Dual specificity protein kinase CLK2 (P49760 whole entry): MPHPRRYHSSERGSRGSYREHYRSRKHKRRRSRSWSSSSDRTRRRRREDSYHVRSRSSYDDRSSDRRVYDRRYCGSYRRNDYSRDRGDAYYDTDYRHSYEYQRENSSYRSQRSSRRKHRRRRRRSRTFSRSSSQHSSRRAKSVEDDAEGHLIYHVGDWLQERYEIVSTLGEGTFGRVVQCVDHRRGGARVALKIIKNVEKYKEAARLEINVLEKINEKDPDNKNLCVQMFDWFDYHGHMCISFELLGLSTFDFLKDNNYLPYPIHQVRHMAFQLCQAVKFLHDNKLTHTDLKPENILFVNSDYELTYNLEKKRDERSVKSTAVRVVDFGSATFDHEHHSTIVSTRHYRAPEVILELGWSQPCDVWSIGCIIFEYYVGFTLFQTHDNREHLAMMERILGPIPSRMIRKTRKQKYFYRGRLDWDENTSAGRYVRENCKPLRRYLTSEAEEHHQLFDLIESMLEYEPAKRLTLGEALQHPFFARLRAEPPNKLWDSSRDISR
Assay [17] is described as follows: Induction of chondrogenesis in human MSC assessed as maximum activity at 61.73 nM incubated for 6 days by rhodamine B and Nile red staining based imaging analysis relative to control. As to conditions: BMMSC, 144 h, time 6 day. In kind it is functional.
Assay [18] is described as follows: Induction of chondrogenesis in human MSC assessed as maximum activity at 5000 nM incubated for 6 days by rhodamine B and Nile red staining based imaging analysis relative to control. As to conditions: BMMSC, 144 h, time 6 day. In kind it is functional.

Turning to `c1cc2cc(c1)-c1cncc3[nH]c(nc13)-c1n[nH]c3ccc(cc13)-c1cncc(c1)CNC2`, the EC50 in assay [1] is 41.8 nM; in [2] it was 200 nM. The Emax at 1.7 µM in [3] is 588%.
For `Fc1ccc(-c2nnc(-c3n[nH]cc3/C=C/c3cccnc3)o2)cc1`, the EC50 stood at 15 nM in assay [4], 3000 nM in [5] and 1510 nM in assay [1]. Moreover, the outcome with Chondrocyte [6] and in the assay with Chondrocyte [7] was inactive. Also, in assay [8], the maximum response (Emax) at 0.9 µM is 23.4%.
On to `O=C(Nc1cccnc1)c1n[nH]c2ccc(-c3cncc(CN4CC5CC(C4)O5)c3)cc12`, for which the EC50 was 3000 nM in assay [5], 67 nM in assay [1] and 900 nM in [2]. The Emax at 0.9 µM in assay [8] worked out at 121%.
With `Fc1cccc(-c2cncc3[nH]c(-c4n[nH]c5ccc(-c6cn[nH]c6)nc45)nc23)c1`, the EC50 in assay [4] was 16 nM; in [1], > 10000 nM; in assay [2], 20.6 nM; in assay [10] it was > 10000 nM. Besides, in assay [9], the Emax at 0.02058 µM was 51.8%.
`O=C1CCc2cccc(c2)-c2cncc(c2)NC(=O)c2n[nH]c3ccc(cc23)-c2cncc(c2)CN1`: the Emax at 0.03 µM in assay [11] was found to be 69.4%. For the same compound, the EC50 is 10 nM in assay [5], > 10000 nM in assay [1] and 30 nM in assay [2]. Besides, the outcome with Chondrocyte [12], in the assay on Chondrocyte [6] and in the assay with Chondrocyte [7] was inactive.
As to `COc1cncc(C(=O)Nc2c[nH]nc2C(=O)Nc2ccc(N3CCC(F)(F)C3)nc2)c1`, the EC50 in assay [4] is 14 nM; in assay [5], 2.2 nM; in assay [1], 5.7 nM; in assay [2], 300 nM; in assay [10] it was > 10000 nM. In addition, the Emax at 0.9 µM in [8] was determined as 124%.
Consider `Fc1cccc(-c2cccc3[nH]c(-c4n[nH]cc4/C=C/c4cncc(CN5CCCC5)c4)nc23)c1`, for which the concentration for a half-maximal effect (EC50) in assay [4] turned out to be 20 nM; in assay [5] it was 1.4 nM; in assay [1] it was 82.1 nM; in [2], 2700 nM. The outcome in the assay on Chondrocyte [12] and with Chondrocyte [6] was inactive. For the same compound, in [13], the Emax at 2.7 µM amounted to 81.7%.
`CCCC(=O)Nc1cncc(-c2ccc3[nH]nc(-c4nc5c(-c6ccncc6)cncc5[nH]4)c3n2)c1`: the EC50 in assay [4] came out at 13 nM; in assay [1], 999 nM. Further, the Emax at 0.18519 µM in [14] came out at 31%.
Regarding `Cn1cc(-c2cc3c(C(=O)Nc4ccc(CN5CCCC5)cc4)n[nH]c3cc2F)cn1`, the results for the EC50 in [4], in assay [5] and in assay [1] were 1 nM, 3000 nM and 242 nM, respectively. Moreover, the outcome with Chondrocyte [12] and with Chondrocyte [6] was inactive. The maximal response (Emax) at 0.1 µM in assay [15] turned out to be 27.4%.
Turning to `Cc1n[nH]c2ccc(-c3cncc(N[C@H]4CCNC[C@@H]4F)n3)cc12`, the EC50 turned out to be 1 nM in [4], 84.3 nM in assay [1], 1 nM in assay [16] and 424 nM in assay [10]. In addition, in assay [11], the maximal effect (Emax) at 0.03 µM is 25.6%. The result in the assay on Chondrocyte [12], in the assay with Chondrocyte [6] and with Chondrocyte [7] was inactive.
Turning to `CCNCc1cncc(-c2ccc3[nH]nc(-c4nc5c(-c6cc(F)cc(NCCN(C)C)c6)nccc5[nH]4)c3n2)c1`, the EC50 is 12 nM in assay [4] and > 10000 nM in assay [1]. Also, in assay [17], the Emax at 0.06173 µM was determined as 35.6%.
For `Cc1n[nH]c2cc(F)c(-c3cncc(O[C@H]4CCNC[C@@H]4F)n3)cc12`, the EC50 stood at 6 nM in assay [4], 630 nM in assay [1], 1 nM in assay [16] and 1300 nM in [10]. Also, the result with Chondrocyte [12] and in the assay on Chondrocyte [7] was inactive.
For the compound `COc1cncc(-c2ccc3[nH]nc(-c4nc5c(-c6cccc(F)c6)ccnc5[nH]4)c3n2)c1`, the EC50 in assay [4] amounted to 51 nM. Also, the Emax at 0.06173 µM in [17] amounted to 47%.
Consider `Cc1n[nH]c2ccc(-c3cncc(OC[C@H](N)Cc4ccccc4)n3)cc12`, for which the results for the EC50 in [4], in assay [1] and in assay [2] were 4 nM, 256 nM and 30 nM, respectively. The outcome with Chondrocyte [12], in the assay on Chondrocyte [6] and in the assay with Chondrocyte [7] was inactive. For the same compound, the maximal response (Emax) at 0.1 µM in assay [15] worked out at 52.1%.
For the compound `CN1CCCCN(C)c2nccc3[nH]c(nc23)-c2c[nH]c3ccc(cc23)-c2cncc(c2)C1`, the EC50 in [4] amounted to 2 nM; in [1] it was 577 nM; in assay [16] it was 2 nM; in [2], 5000 nM; in [10], 12 nM. For the same compound, the Emax at 5 µM in [18] was found to be 231%.
Consider `CCC(=O)Nc1cncc(-c2ccc3[nH]nc(-c4nc5c(-c6cccc(F)c6)ccnc5[nH]4)c3n2)c1`, for which the EC50 in assay [4] is 36 nM; in assay [1], > 10000 nM. In addition, the Emax at 0.06173 µM in assay [17] came to 29.3%.
Take `CCCC(=O)Nc1cncc(-c2ccc3[nH]nc(-c4nc5c(-c6ccsc6)cncc5[nH]4)c3n2)c1`: the figures for the EC50 in assay [4], in [1] and in assay [2] were 46 nM, 3600 nM and 20.6 nM, respectively. In assay [9], the Emax at 0.02058 µM turned out to be 58.4%.
Consider `Oc1cncc(-c2ccc3[nH]nc(-c4nc5c(-c6cccc(F)c6)cncc5[nH]4)c3n2)c1`, for which the EC50 in assay [4] was 31 nM; in assay [1] it was > 10000 nM; in assay [2], 20.6 nM. For the same compound, the Emax at 0.02058 µM in assay [9] was found to be 53.6%.
For `COc1cncc(-c2ccc3[nH]nc(-c4nc5c(-c6cccc(F)c6)nccc5[nH]4)c3n2)c1`, in that order: 46 nM, 120 nM, 20.6 nM and 60.4%.
In the case of `Oc1cncc(-c2ccc3[nH]nc(-c4nc5c(-c6cccc(F)c6)nccc5[nH]4)c3n2)c1`, the figures for the EC50 in assay [4], in assay [1] and in assay [2] were 24 nM, 460 nM and 6.86 nM, respectively. The Emax at 0.18519 µM in assay [14] amounted to 56.7%.
With `CN(C)C(=O)Nc1cncc(-c2cnc3[nH]nc(-c4nc5c(-c6cccc(F)c6)cncc5[nH]4)c3c2)c1`, the concentration for a half-maximal effect (EC50) in assay [4] turned out to be 4 nM; in assay [5], 40.6 nM; in [1], 10 nM. Besides, the Emax at 0.9 µM in [8] turned out to be 68.1%.
In the case of `COc1cncc(-c2ccc3[nH]nc(-c4nc5c(-c6cccc(F)c6)cncc5[nH]4)c3n2)c1`, the EC50 in assay [4] was 40 nM; in assay [2], 20.6 nM. The Emax at 0.06173 µM in [17] turned out to be 55.5%.
As for `CC(C)C(=O)Nc1cncc(-c2ccc3[nH]nc(-c4nc5c(-c6cccnc6)ccnc5[nH]4)c3n2)c1`, the results for the EC50 in assay [4] and in [1] were 30 nM and > 10000 nM, respectively. Besides, the maximal effect (Emax) at 0.06173 µM in assay [17] was determined as 26.1%.
